Test results taken from patent US6906081B2, “Use of dual H3/M2 antagonists in the treatment of cognition deficit disorders” (Schering Corporation, priority 2001, dated 2005).

Experiments:
H3 receptor = target: T1, H3 receptor (Cavia porcellus, UniProt Q9JI35); test: H3 receptor binding, displacement of radiolabeled Nα-methylhistamine from guinea pig brain membranes; settings: affinity for the H3 receptor
T1 construct: from tissue; host or cells: guinea pig brain membranes
Text: Compounds can readily be evaluated to determine activity at H3 receptors by known methods, including the guinea pig brain membrane assay and the guinea pig neurogenic ileum contraction assay, both of which are described in U.S. Pat. No. 5,352,707. Another useful assay utilizes rat brain membranes and is described by West et al., “Identification of Two H3-Histamine Receptor Subtypes,” Molecular Pharmacology, Vol. 38, pages 610-613 (1990).
A particularly useful screening assay measures binding to sites in guinea pig brain membranes. This test is described in detail by Korte et al., “Characterization and Tissue Distribution of H3 Histamine Receptors in Guinea Pigs by N^α-Methylhistamine,” in Biochemical and Biophysical Research Communications, Vol. 168, pages 979-986 (1990), and quantifies the displacement of bound radiolabeled N^α-methylhistamine from tissues by candidate compounds. Results are expressed as “Ki” values, in nanoMolar (nM) units, which values can be considered as being dissociation constants for the H3 antagonist on the H3 receptor system, or an index of antagonist affinity for the receptor. In general, Ki values less than about 200 nM are considered necessary for an agent to be useful as an H3 antagonist in the invention.

[1] = target: T2, cloned human m2 muscarinic receptor (Homo sapiens, UniProt P08172); test: Binding to cloned human m2 muscarinic receptor (3H-QNB, CHO cell membranes); settings: affinity for the m2 receptor; 3H-QNB displacement
T2 sequence (P08172 1-466): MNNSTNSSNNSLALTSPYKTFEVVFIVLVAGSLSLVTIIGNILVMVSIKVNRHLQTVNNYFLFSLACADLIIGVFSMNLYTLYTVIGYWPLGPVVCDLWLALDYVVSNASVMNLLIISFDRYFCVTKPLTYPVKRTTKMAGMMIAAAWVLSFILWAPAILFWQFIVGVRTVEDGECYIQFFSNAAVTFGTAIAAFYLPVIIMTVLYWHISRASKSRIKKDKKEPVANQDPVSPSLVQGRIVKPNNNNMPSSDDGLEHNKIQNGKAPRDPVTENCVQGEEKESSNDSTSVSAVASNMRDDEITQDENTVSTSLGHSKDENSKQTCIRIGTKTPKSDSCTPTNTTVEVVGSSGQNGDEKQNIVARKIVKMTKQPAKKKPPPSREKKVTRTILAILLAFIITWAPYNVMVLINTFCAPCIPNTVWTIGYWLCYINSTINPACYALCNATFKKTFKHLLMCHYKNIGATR

T1 sequence (Q9JI35 whole entry): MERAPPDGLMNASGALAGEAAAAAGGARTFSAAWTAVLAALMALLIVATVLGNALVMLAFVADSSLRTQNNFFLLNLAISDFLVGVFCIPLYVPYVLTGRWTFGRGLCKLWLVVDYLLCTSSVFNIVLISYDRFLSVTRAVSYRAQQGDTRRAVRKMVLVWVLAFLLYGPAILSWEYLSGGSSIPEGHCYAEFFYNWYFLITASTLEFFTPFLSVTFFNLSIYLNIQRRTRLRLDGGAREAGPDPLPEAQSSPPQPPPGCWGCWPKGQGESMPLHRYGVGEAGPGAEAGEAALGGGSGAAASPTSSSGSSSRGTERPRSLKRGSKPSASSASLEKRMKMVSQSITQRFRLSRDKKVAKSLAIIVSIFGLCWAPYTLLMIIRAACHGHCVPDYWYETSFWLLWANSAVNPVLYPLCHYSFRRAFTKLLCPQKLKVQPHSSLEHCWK

Row | SMILES | Ki (H3 receptor) [nM] | Ki [1] [nM]
1 | CCN(CC)CCOc1ccc(CN2CCC(C3CCN(Cc4ccc(C(=O)NC(C)C)cc4)CC3)CC2)cc1 [Compound 1] | 18 | 0.17
2 | CCCS(=O)(=O)N1CCC(N2CCC(C3(c4ccc(S(=O)(=O)c5ccc6c(c5)OCO6)cc4)OCCO3)CC2)CC1 [Compound 2] | 140 | 0.01
3 | O=C(NCC1CC1)c1ccc(CN2CCC(C3CCN(Cc4ccc(C(=O)NCC5CC5)cc4)CC3)CC2)cc1 [Compound 3] | 500 | 0.125
4 | c1ccc(CN2CCC(C3CCN(Cc4ccccc4)CC3)CC2)cc1 [Compound 4] | 620 | 3.4
5 | CC(C)(C)OC(=O)N1CCC(C2CCN(Cc3ccc(S(=O)(=O)c4ccc5c(c4)OCO5)cc3)CC2)CC1 [Compound 5] | 430 | 2.6
6 | Cc1ccccc1C(=O)N1CCC(C2CCN(Cc3ccc(S(=O)(=O)c4ccc5c(c4)OCO5)cc3)CC2)CC1 [Compound 6] | 160 | 1.2
7 | CCN(CC)CCOc1ccc(CN2CCC(C3CCN(Cc4ccc(S(=O)(=O)c5ccc6c(c5)OCO6)cc4)CC3)CC2)cc1 [Compound 7] | 22 | 0.07
8 | CN(C)CCCOc1ccc(CN2CCC(C3CCN(Cc4ccc(S(=O)(=O)c5ccc6c(c5)OCO6)cc4)CC3)CC2)cc1 [Compound 8] | 6 | 0.05
9 | O=C(NCC1CC1)c1ccc(CN2CCC(C3CCN(Cc4ccc(S(=O)(=O)c5ccc6c(c5)OCO6)cc4)CC3)CC2)cc1 [Compound 9] | 290 | 0.22
10 | CN(C)CCCOc1ccc(CN2CCC(N3CCC(C(=O)c4ccc(S(=O)(=O)c5ccc6c(c5)OCO6)cc4)CC3)CC2)cc1 [Compound 10] | 15 | 0.019
11 | CCN(CC)CCOc1ccc(CN2CCC(N3CCC(C(=O)c4ccc(S(=O)(=O)c5ccc6c(c5)OCO6)cc4)CC3)CC2)cc1 [Compound 11] | 8 | 0.018
12 | CCCCOc1ccc(CN2CCC(N3CCC(C(=O)c4ccc(S(=O)(=O)c5ccc6c(c5)OCO6)cc4)CC3)CC2)cc1 [Compound 12] | 170 | 4.8
13 | CN(C)CCCOc1ccc(CN2CCC(N3CCC(C4(c5ccc(S(=O)(=O)c6ccc7c(c6)OCO7)cc5)OCCO4)CC3)CC2)cc1 [Compound 13] | 12 | 0.8
14 | CCN(CC)CCOc1ccc(CN2CCC(N3CCC(C4(c5ccc(S(=O)(=O)c6ccc7c(c6)OCO7)cc5)OCCO4)CC3)CC2)cc1 [Compound 14] | 2 | 0.7
15 | CCCCOc1ccc(CN2CCC(N3CCC(C4(c5ccc(S(=O)(=O)c6ccc7c(c6)OCO7)cc5)OCCO4)CC3)CC2)cc1 [Compound 15] | 43 | 0.17
